Source: ChEMBL document CHEMBL1156824, “Physicochemical space for optimum oral bioavailability: contribution of human intestinal absorption and first-pass elimination” (J Med Chem, 2010)

Key:
Plasma = assay: Fraction unbound in human plasma
Homo sapiens [1] = species: Homo sapiens; assay: Hepatic clearance in human; conditions: in vivo
clinical [2] = conditions: human, in vivo
Homo sapiens [3] = species: Homo sapiens; assay: in vitro; conditions: plasma
clinical [4] = conditions: human, in vivo; remark: listed apart in the source
[5] = (§1) Volume of distribution at steady state in human; conditions: in vivo
Homo sapiens [6] = species: Homo sapiens; assay: Fraction escaping hepatic elimination in human; conditions: in vivo
Homo sapiens [7] = species: Homo sapiens; assay: Fraction escaping gut-wall elimination in human; conditions: in vivo
Homo sapiens [8] = species: Homo sapiens; conditions: in vivo
Homo sapiens [9] = assay: Oral bioavailability in human; conditions: in vivo
Homo sapiens [10] = species: Homo sapiens; assay: Fraction absorbed in human; conditions: in vivo
Homo sapiens [11] = species: Homo sapiens; assay: as §1; conditions: in vivo

Compound | Fu (Plasma) | CL (Homo sapiens [1]) | CL renal (clinical [2]) | clearance (clinical [4]) | other results
CCCCC(=O)N(Cc1ccc(-c2ccccc2-c2nnn[nH]2)cc1)[C@H](C(=O)O)C(C)C | 0.04 | 0.3 mL/min/kg | 0.1 mL/min/kg |  | 
CO/N=C(\C(=O)N[C@@H]1C(=O)N2C(C(=O)O)=C(C)CS[C@H]12)c1csc(N)n1 |  | 0.4 mL/min/kg |  |  | fraction unbound (Homo sapiens [3]): 0.78
Cc1cccc(C)c1NC(=O)NCCCNC(C)C |  | 2.2 mL/min/kg |  |  | fraction unbound (Homo sapiens [3]): 0.86
C[C@@H]1[C@H](O)[C@@H](C)/C=C/C=C/C=C/C=C/C=C/C=C/C=C/[C@H](O[C@@H]2O[C@H](C)[C@@H](O)[C@H](N)[C@@H]2O)C[C@@H]2O[C@](O)(C[C@@H](O)C[C@@H](O)[C@H](O)CC[C@@H](O)C[C@@H](O)CC(=O)O[C@H]1C)C[C@H](O)[C@H]2C(=O)O [AMPHOTERICIN B] |  | 0.4 mL/min/kg | 0.0138 mL/min/kg | 0.46 mL/min/kg | 
O=C1C(O)=C([C@H]2CC[C@H](c3ccc(Cl)cc3)CC2)C(=O)c2ccccc21 [ATOVAQUONE] | 0.001 | 0.2 mL/min/kg |  |  | Vd [5]: 0.6 L/kg
CCc1cccc2cc(C(O)CNC(C)(C)C)oc12 (configuration not stated) [BUFURALOL] |  | 8.9 mL/min/kg |  |  | Fh (Homo sapiens [6]): 0.61; Fg (Homo sapiens [7]): 0.7; fraction unbound (Homo sapiens [3]): 0.19; CL_renal (Homo sapiens [8]): 0 mL/min/kg; F_fraction (Homo sapiens [9]): 0.43; Fa (Homo sapiens [10]): 1
CO/N=C(\C(=O)N[C@@H]1C(=O)N2C(C(=O)O)=C(CSc3nc(=O)c(=O)[nH]n3C)CS[C@H]12)c1csc(N)n1 [CEFTRIAXONE] | 0.052 | 0.1 mL/min/kg | 0.1 mL/min/kg |  | 
COCc1c(C(C)C)nc(C(C)C)c(/C=C/[C@@H](O)C[C@@H](O)CC(=O)O)c1-c1ccc(F)cc1 [CERIVASTATIN] |  | 2.9 mL/min/kg |  |  | CL_renal (Homo sapiens [8]): 0 mL/min/kg
Cc1onc(-c2ccccc2Cl)c1C(=O)N[C@@H]1C(=O)N2[C@@H]1SC(C)(C)[C@@H]2C(=O)O [CLOXACILLIN] |  | 0.6 mL/min/kg | 1 mL/min/kg | 1.6 mL/min/kg | 
O=P1(N(CCCl)CCCl)NCCCO1 (configuration not stated) [CYCLOPHOSPHAMIDE ANHYDROUS] |  | 1 mL/min/kg | 0.1 mL/min/kg |  | Fh (Homo sapiens [6]): 0.96; Fg (Homo sapiens [7]): 0.86; F_fraction (Homo sapiens [9]): 0.74; Fa (Homo sapiens [10]): 0.9
CC(C)N(CCC(C(N)=O)(c1ccccc1)c1ccccn1)C(C)C (configuration not stated) [DISOPYRAMIDE] | 0.16 | 0.4 mL/min/kg |  |  | 
COc1cc([C@@H]2c3cc4c(cc3[C@@H](O[C@@H]3O[C@@H]5CO[C@@H](C)O[C@H]5[C@H](O)[C@H]3O)[C@H]3COC(=O)[C@H]23)OCO4)cc(OC)c1O [ETOPOSIDE] |  | 0.3 mL/min/kg | 0.2 mL/min/kg | 0.5 mL/min/kg | Fh (Homo sapiens [6]): 0.99
COc1ccc(Cl)cc1C(=O)NCCc1ccc(S(=O)(=O)NC(=O)NC2CCCCC2)cc1 [GLYBURIDE] | 0.021 | 0.8 mL/min/kg |  |  | Vd [5]: 0.08 L/kg
c1ccc2c(c1)OCC(C1=NCCN1)O2 (configuration not stated) [IDAZOXAN] |  | 10 mL/min/kg |  | 10 mL/min/kg | 
C[C@@H](O)[C@H]1C(=O)N2C(C(=O)O)=C(SCCN=CN)C[C@H]12 [IMIPENEM ANHYDROUS] |  | 1.5 mL/min/kg | 1.5 mL/min/kg | 3 mL/min/kg | 
COc1ccc2c(c1)c(CC(=O)O)c(C)n2C(=O)c1ccc(Cl)cc1 [INDOMETHACIN] | 0.01 | 1.1 mL/min/kg |  |  | 
Nc1nnc(-c2cccc(Cl)c2Cl)c(N)n1 [LAMOTRIGINE] |  | 0.6 mL/min/kg | 0.042 mL/min/kg | 0.6 mL/min/kg | F_fraction (Homo sapiens [9]): 0.98

Compound | Fu (Plasma) | CL (Homo sapiens [1]) | CL renal (clinical [2]) | clearance (clinical [4]) | other results
CNC[C@H](O)CC12CCC(c3ccccc31)c1ccccc12 [LEVOPROTILINE] |  | 12.1 mL/min/kg | 0.2 mL/min/kg | 12.3 mL/min/kg | 
CCCCCN(CCCOC)C(=O)C(CCC(=O)O)NC(=O)c1ccc(Cl)c(Cl)c1 (configuration not stated) [LOXIGLUMIDE] |  | 1 mL/min/kg | 0.022 mL/min/kg | 1 mL/min/kg | 
Cc1ncc2n1-c1ccc(Cl)cc1C(c1ccccc1F)=NC2 [MIDAZOLAM] |  | 5.3 mL/min/kg |  |  | CL_renal (Homo sapiens [8]): 0 mL/min/kg; F_fraction (Homo sapiens [9]): 0.38
CC(C)(C)NCC(O)COc1cccc2c1CC(O)C(O)C2 (configuration not stated) [NADOLOL] | 0.14 | 1.1 mL/min/kg |  |  | 
COc1ccnc(C[S+]([O-])c2nc3ccc(OC(F)F)cc3[nH]2)c1OC (configuration not stated) [PANTOPRAZOLE] |  | 2.2 mL/min/kg |  |  | Vdss (Homo sapiens [11]): 6.3 L/kg
O=C1NC(=O)C(c2ccccc2)(c2ccccc2)N1 [PHENYTOIN] |  | 0.4 mL/min/kg | 0.0074 mL/min/kg | 0.37 mL/min/kg | Fh (Homo sapiens [6]): 0.98
CNC(=O)Oc1ccc2c(c1)[C@]1(C)CCN(C)[C@@H]1N2C [PHYSOSTIGMINE] |  | 5.5 mL/min/kg | 16.5 mL/min/kg | 22 mL/min/kg | Vd [5]: 0.66 L/kg; F_fraction (Homo sapiens [9]): 0.01
C[C@]12C=CC(=O)C=C1CC[C@@H]1[C@@H]2[C@@H](O)C[C@@]2(C)[C@H]1CC[C@]2(O)C(=O)CO [PREDNISOLONE] | 0.25 | 2.3 mL/min/kg |  |  | 
CCCc1cc(=O)[nH]c(=S)[nH]1 [PROPYLTHIOURACIL] | 0.18 | 3.1 mL/min/kg |  |  | Fh (Homo sapiens [6]): 0.87; Fg (Homo sapiens [7]): 0.97
CC(C)c1nc(CN(C)C(=O)N[C@H](C(=O)N[C@@H](Cc2ccccc2)C[C@H](O)[C@H](Cc2ccccc2)NC(=O)OCc2cncs2)C(C)C)cs1 [RITONAVIR] |  | 1.2 mL/min/kg | 0.042 mL/min/kg | 1.2 mL/min/kg | 
Nc1ccc(S(=O)(=O)Nc2ncccn2)cc1 [SULFADIAZINE] |  | 0.2 mL/min/kg | 0.3 mL/min/kg |  | Fh (Homo sapiens [6]): 0.99; Fg (Homo sapiens [7]): 1.01; F_fraction (Homo sapiens [9]): 0.85; Fa (Homo sapiens [10]): 0.85
O=C(O)c1cc(/N=N/c2ccc(S(=O)(=O)Nc3ccccn3)cc2)ccc1O [SULFASALAZINE] |  | 0.2 mL/min/kg | 0.1 mL/min/kg | 0.24 mL/min/kg | 
CN1C(C(=O)Nc2ccccn2)=C(O)c2sccc2S1(=O)=O [TENOXICAM] |  | 0.0297 mL/min/kg | 0.0003 mL/min/kg |  | Fh (Homo sapiens [6]): 1; Fg (Homo sapiens [7]): 1; F_fraction (Homo sapiens [9]): 1; Fa (Homo sapiens [10]): 1
CCOC(=O)C1(c2ccccc2)CCC=CC1N(C)C (configuration not stated) [TILIDINE] |  | 15.7 mL/min/kg | 0.3 mL/min/kg |  | fraction unbound (Homo sapiens [3]): 0.21; Vd [5]: 4 L/kg
Clc1ccc2nsnc2c1NC1=NCCN1 [TIZANIDINE] |  | 10.7 mL/min/kg | 0.3 mL/min/kg |  | Fh (Homo sapiens [6]): 0.54; Fg (Homo sapiens [7]): 0.39; F_fraction (Homo sapiens [9]): 0.21; Fa (Homo sapiens [10]): 1
GENTAMICIN | 1 | 0.3 mL/min/kg |  |  | 
